The source of these data is patent publication US20260008783A1, “MODULATORS OF FSHR AND USES THEREOF” (Celmatix Inc., priority 2022, published 2026).

“And” between values parts separate entries of the source, which are not always exact repeats. Identical values can stand only once.

The experiment addresses T1, Follicle Stimulating Hormone Receptor (FSHR) (Homo sapiens, UniProt P23945).
T1 construct: HA (N); expressed in transfected cells; host or cells: CHO-K1, transient transfection, pHM6 vector (CMV promoter)
T1 sequence (P23945 18-695): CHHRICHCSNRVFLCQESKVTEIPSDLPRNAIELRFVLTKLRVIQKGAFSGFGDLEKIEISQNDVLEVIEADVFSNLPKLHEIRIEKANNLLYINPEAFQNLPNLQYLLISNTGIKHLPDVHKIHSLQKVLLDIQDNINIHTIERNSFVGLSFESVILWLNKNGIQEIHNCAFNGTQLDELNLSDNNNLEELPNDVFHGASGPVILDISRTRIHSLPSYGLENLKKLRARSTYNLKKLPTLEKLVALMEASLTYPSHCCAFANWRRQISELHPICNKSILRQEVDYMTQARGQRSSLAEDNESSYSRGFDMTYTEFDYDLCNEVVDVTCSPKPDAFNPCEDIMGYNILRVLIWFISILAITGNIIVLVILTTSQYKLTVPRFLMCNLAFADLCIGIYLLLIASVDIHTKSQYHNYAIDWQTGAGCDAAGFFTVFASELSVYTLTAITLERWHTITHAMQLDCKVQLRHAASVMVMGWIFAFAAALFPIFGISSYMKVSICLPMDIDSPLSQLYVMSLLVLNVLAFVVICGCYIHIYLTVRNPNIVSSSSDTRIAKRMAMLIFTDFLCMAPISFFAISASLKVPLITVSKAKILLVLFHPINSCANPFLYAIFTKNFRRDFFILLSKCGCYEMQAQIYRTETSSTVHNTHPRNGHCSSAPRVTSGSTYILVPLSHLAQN
In words: HTRF cAMP agonist assay, FSHR, transiently transfected CHO-K1 cells. The class given is cell-based. Conditions: CHO-K1 cells transiently expressing human FSHR, read-out: IC50 FSHR LANCE CAMP. (In TR-FRET formats the signal depends on donor and acceptor labels being close together.)
Turning to `COc1cc2c(cc1-c1cncc(C(N)=O)c1)-c1c(c(C(=O)N3COCC3(C)C)nn1-c1cc(Cl)cc(Cl)c1)OC2` [Compound 12-04], the IC50 was determined as 5.09 nM.

`COc1cc2c(cc1-c1cncc(C(N)=O)c1)-c1c(c(C(=O)N3CCNC(=O)C3)nn1-c1cc(Cl)cc(Cl)c1)CC2` [Compound 8-82]: the IC50 stood at 79.8 nM. For the compound `CCN1CCN(C(=O)c2nn(-c3cc(Cl)cc(Cl)c3)c3c2CCc2cc(OC)c(-c4cncc(C(N)=O)c4)cc2-3)C(C)(C)C1` [Compound 8-60], the half-maximal inhibitory concentration (IC50) stood at 38.9 nM. With `COc1cc2c(cc1Br)-c1c(c(C(=O)N3CCOCC3(C)C)nn1-c1cc(Cl)cc(Cl)c1)CC2` [Compound 6-01A, [8-bromo-1-(3,5-dichlorophenyl)-7-methoxy-4,5-dihydrobenzo[g]indazol-3-yl]-(3,3-dimethylmorpholin-4-yl)methanone], the IC50 amounted to 1090 nM. `CCCn1nc(C(=O)N2CCOCC2(C)C)c2c1-c1cc(-c3cncc(C(N)=O)c3)c(OC)cc1CC2` [Compound 9-13, 5-[3-(3,3-dimethylmorpholine-4-carbonyl)-7-methoxy-1-propyl-4,5-dihydrobenzo[g]indazol-8-yl]pyridine-3-carboxamide]: the IC50 was 92.4 nM. `COc1cc2oc3c(C(=O)N4CCOCC4(C)C)n(-c4ccsc4)nc3c2cc1-c1cncc(C(N)=O)c1` [Compound 4-03A]: the IC50 came to 1860 nM. As to `COc1cc2c(cc1-c1cncc(C(N)=O)c1)-c1c(c(C(=O)N3CCNCC3C)nn1-c1cc(Cl)cc(Cl)c1)CC2` (stereo not shown) [Compound 8-01, 5-[1-(3,5-dichlorophenyl)-7-methoxy-3-(2-methylpiperazine-1-carbonyl)-4,5-dihydrobenzo[g]indazol-8-yl]pyridine-3-carboxamide], the IC50 was 20.8 nM. Take `COc1cc2c(cc1-c1ccn(C)n1)-c1c(c(C(=O)N3CCOCC3(C)C)nn1-c1cc(Cl)cc(Cl)c1)SC2` [Compound 3-03, (1-(3,5-dichlorophenyl)-7-methoxy-8-(1-methyl-1H-pyrazol-3-yl)-1,5-dihydroisothiochromeno[4,3-c]pyrazol-3-yl)(3,3-dimethylmorpholino)methanone]: the IC50 is 325 nM.

With `COc1cc2c(cc1-c1cncc(C(N)=O)c1)-c1c(c(C(=O)N(C)C)nn1-c1cc(Cl)cc(Cl)c1)CC2` [Compound 9-05], the IC50 amounted to 45.2 nM.

With `COc1cc2c(cc1-c1cncc(C(N)=O)c1)-c1c(c(C(=O)N3CCOCC3(C)C)nn1-c1ccsc1)CC2` [Compound 9-21, 5-[3-(3,3-dimethylmorpholine-4-carbonyl)-7-methoxy-1-(3-thienyl)-4,5-dihydrobenzo[g]indazol-8-yl]pyridine-3-carboxamide], the IC50 was determined as 1.29 nM. For the compound `COc1cc2oc3c(C(=O)N4CCOCC4(C)C)nn(-c4ccsc4)c3c2cc1-c1ccn(C)n1` [Compound 4-07, (3,3-dimethylmorpholin-4-yl)-[6-methoxy-7-(1-methylpyrazol-3-yl)-1-(3-thienyl)benzofuro[3,2-c]pyrazol-3-yl]methanone], the IC50 worked out at 2810 nM. For `COc1cc2c(cc1-c1cncc(C(N)=O)c1)-c1c(c(C(=O)N3CC4CCC3CN4)nn1-c1cc(Cl)cc(Cl)c1)CC2` (stereo not shown) [Compound 8-24], the IC50 is 524 nM.

For `COc1cc2ccc3c(C(=O)N4CCOCC4(C)C)nn(-c4cc(Cl)cc(Cl)c4)c3c2cc1-c1cncc(C(N)=O)c1` [Compound 6-05, 5-[1-(3,5-dichlorophenyl)-3-(3,3-dimethylmorpholine-4-carbonyl)-7-methoxy-benzo[g]indazol-8-yl]pyridine-3-carboxamide], the IC50 came to 5.24 nM. Regarding `COc1cc2c(cc1-c1cncc(C(N)=O)c1)-c1c(c(C(=O)N3[C@H](C)CNC[C@@H]3C)nn1-c1cc(Cl)cc(Cl)c1)SC2` [Compound 12-13], the IC50 came to 4.98 nM. Under `COc1cc2c(cc1-c1cncc(C(N)=O)c1)-c1c(c(C(=O)N3CCOCC3(C)C)nn1-c1ccsc1)C2` [Compound 5-03, 5-[3-(3,3-dimethylmorpholine-4-carbonyl)-6-methoxy-1-(3-thienyl)-4H-indeno[1,2-c]pyrazol-7-yl]pyridine-3-carboxamide] stands 4.64 nM; under `COc1cc2c(cc1-c1cncc(C(N)=O)c1)-c1c(c(C(=O)N3CCOCC3(C)C)nn1-c1cnccn1)CC2` [Compound 10-06], 67.4 nM; under `COc1cc2c(cc1-c1cncc(C(N)=O)c1)-c1c(c(CN3CCOCC3(C)C)nn1-c1cc(Cl)cc(Cl)c1)CC2` [Compound 9-06], 0.976 nM. As for `COc1cc2c(cc1-c1cncc(C(N)=O)c1)-c1c(c(C(=O)N3COCC3(C)C)nn1-c1cc(Cl)cc(Cl)c1)S(=O)(=O)C2` [Compound 12-07], the IC50 was found to be 21.2 nM. Under `CC1(C)C(=O)NCCN1C(=O)c1nn(-c2ccccn2)c2c1CCc1ccc(-c3cncc(C(N)=O)c3)cc1-2` [Compound 8-75] stands 27400 nM; under `COc1cc2c(cc1-c1cncc(C(N)=O)c1)-c1c(c(C(=O)N3CCOCC3(C)C)nn1-c1cc(Cl)cc(Cl)c1)[S+]([O-])C2` (stereo not shown) [Compound 3-05], 55.7 nM. With `COc1cc2c(cc1-c1cncc(C(N)=O)c1)-c1c(c(C(=O)N(C)C(C)C3CC3)nn1-c1cc(Cl)cc(Cl)c1)CC2` (stereo not shown) [Compound 8-42] the figure was 6.76 nM; with `COc1cc2c(cc1-c1cncc(C(N)=O)c1)-c1c(c(C(=O)N3CCNC(=O)C3(C)C)nn1-c1cc(Cl)cc(Cl)c1)CC2` [Compound 8-26b], 20.3 nM; with `CCn1nc(C(=O)N2CCOCC2(C)C)c2c1-c1cc(-c3cncc(C(N)=O)c3)c(OC)cc1CC2` [Compound 9-11], 830 nM. Regarding `COc1cc2c(cc1-c1cncc(C(N)=O)c1)-c1c(c(C(=O)N3CCNC(=O)C3(C)C)nn1CC(C)C)CC2` [Compound 13-09, 5-[3-(2,2-dimethyl-3-oxo-piperazine-1-carbonyl)-1-isobutyl-7-methoxy-4,5-dihydrobenzo[g]indazol-8-yl]pyridine-3-carboxamide], the IC50 came to 2130 nM. Take `COc1cc2c(cc1-c1cncc(C(N)=O)c1)-c1c(c(C(=O)N3CCOCC3(C)C)nn1-c1cncnc1)CC2` [Compound 10-09]: the IC50 was found to be 165 nM. With `COc1cc2c(cc1Br)-c1c(c(C(=O)N(C)C(C)(C)C)nn1-c1cc(Cl)cc(Cl)c1)CC2` [Compound 6-02A, 8-bromo-N-tert-butyl-1-(3,5-dichlorophenyl)-7-methoxy-N-methyl-4,5-dihydrobenzo[g]indazole-3-carboxamide] the figure was 861 nM. Under `COc1cc2c(cc1-c1cncc(C(N)=O)c1)-c1c(c(C(=O)N3CCN(C(=O)OC(C)(C)C)C[C@@H]3C(C)C)nn1-c1cc(Cl)cc(Cl)c1)CC2` (stereo in doubt) [Compound 8-25A] stands 754 nM.

Take `COc1cc2c(cc1-c1cncc(C(N)=O)c1)-c1c(c(C(=O)N3C4CNCC3C4)nn1-c1cc(Cl)cc(Cl)c1)CC2` [Compound 8-16B]: the IC50 was 769 nM. In the case of `COc1cc2c(cc1-c1cncc(C(N)=O)c1)-c1c(c(C(=O)N3CCN(C)CC3(C)C)nn1-c1cc(Cl)cc(Cl)c1)CC2` [Compound 8-06], the IC50 was determined as 17.6 nM. In the case of `COc1cc2c(cc1-c1cncc(C(N)=O)c1)-c1c(c(C(=O)N3CCOCC3(C)C)nn1-c1cccnc1)CC2` [Compound 10-02], the IC50 turned out to be 40.1 nM. Under `COc1cc2c(cc1-c1cncc(C(N)=O)c1)-c1c(c(C(=O)N3CCOCC3(C)C)nn1-c1ccccn1)CC2` [Compound 10-01, 5-[3-(3,3-dimethylmorpholine-4-carbonyl)-7-methoxy-1-(2-pyridyl)-4,5-dihydrobenzo[g]indazol-8-yl]pyridine-3-carboxamide] stands 5.06 nM. With `COc1cc2c(cc1-c1cncc(C(N)=O)c1)-c1c(c(C(=O)N3CCN(CCN)CC3(C)C)nn1-c1cc(Cl)cc(Cl)c1)CC2` [Compound 8-66] the figure was 2790 nM; with `O=C(c1nn(-c2ccccn2)c2c1CCc1ccc(-c3cccnc3)cc1-2)N1CCNC(=O)C12CC2` [Compound 8-81], 5380 nM. Consider `CCN(C)C(=O)c1nn(-c2cc(Cl)cc(Cl)c2)c2c1CCc1cc(OC)c(-c3cncc(C(N)=O)c3)cc1-2` [Compound 8-34], for which the 50% inhibitory concentration (IC50) came to 13.4 nM. With `COc1cc2c(cc1-c1cncc(C(N)=O)c1)-c1c(c(C(=O)N3CC(=O)NCC3(C)C)nn1-c1cc(Cl)cc(Cl)c1)CC2` [Compound 8-86], the half-inhibitory concentration (IC50) amounted to 24.5 nM. As for `COc1cc2c(cc1-c1cncc(C(N)=O)c1)-c1c(c(C(=O)N3[C@H](C)CNC[C@@H]3C)nn1-c1cc(Cl)cc(Cl)c1)S(=O)(=O)C2` [Compound 12-05], the IC50 was found to be 15.4 nM. Consider `COc1cc2c(cc1-c1cncc(C(N)=O)c1)-c1c(c(C(=O)N3CCNC[C@H]3C(C)C)nn1-c1cc(Cl)cc(Cl)c1)CC2` [Compound 8-25], for which the IC50 amounted to 71.8 nM.

Regarding `COc1cc2c(cc1-c1cncc(C(N)=O)c1)-c1c(c(C(=O)N(C)C3CCN(C)C3)nn1-c1cc(Cl)cc(Cl)c1)CC2` (stereo not shown) [Compound 8-28], the IC50 amounted to 2180 nM. As to `COc1cc2c(cc1-c1cncc(C(N)=O)c1)-c1c(c(C(=O)N3COCC3(C)C)nn1-c1cc(Cl)cc(Cl)c1)CC2` [Compound 8-32], the half-inhibitory concentration (IC50) turned out to be 0.825 nM. With `CCN(C(=O)c1nn(-c2cc(Cl)cc(Cl)c2)c2c1CCc1cc(OC)c(-c3cncc(C(N)=O)c3)cc1-2)C(C)(C)C` [Compound 8-41], the IC50 was 1.8 nM and 2.46 nM.

One may read the IC50 as the point on the concentration scale where inhibition reaches its midpoint.
